Assay results published in PubChem BioAssay AID652165 (Sanford-Burnham Center for Chemical Genomics, 2013).
Active and inactive are the calls of the source.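 Rule for the calls: active = IC50 at or below 20 µM; inactive = the rest.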

Molecular target: Fatty acid synthase (Homo sapiens) (UniProt P49327)
Assay: FAS thioesterase domain inhibitors, SAR follow-up, biochemical, kinetic fluorescence intensity, dose response (AID 652165)
Settings: recombinant FAS-TE, OMFH fluorogenic substrate

Sequence of Fatty acid synthase (Homo sapiens) (P49327 whole entry, looked up, the tested form may be a part): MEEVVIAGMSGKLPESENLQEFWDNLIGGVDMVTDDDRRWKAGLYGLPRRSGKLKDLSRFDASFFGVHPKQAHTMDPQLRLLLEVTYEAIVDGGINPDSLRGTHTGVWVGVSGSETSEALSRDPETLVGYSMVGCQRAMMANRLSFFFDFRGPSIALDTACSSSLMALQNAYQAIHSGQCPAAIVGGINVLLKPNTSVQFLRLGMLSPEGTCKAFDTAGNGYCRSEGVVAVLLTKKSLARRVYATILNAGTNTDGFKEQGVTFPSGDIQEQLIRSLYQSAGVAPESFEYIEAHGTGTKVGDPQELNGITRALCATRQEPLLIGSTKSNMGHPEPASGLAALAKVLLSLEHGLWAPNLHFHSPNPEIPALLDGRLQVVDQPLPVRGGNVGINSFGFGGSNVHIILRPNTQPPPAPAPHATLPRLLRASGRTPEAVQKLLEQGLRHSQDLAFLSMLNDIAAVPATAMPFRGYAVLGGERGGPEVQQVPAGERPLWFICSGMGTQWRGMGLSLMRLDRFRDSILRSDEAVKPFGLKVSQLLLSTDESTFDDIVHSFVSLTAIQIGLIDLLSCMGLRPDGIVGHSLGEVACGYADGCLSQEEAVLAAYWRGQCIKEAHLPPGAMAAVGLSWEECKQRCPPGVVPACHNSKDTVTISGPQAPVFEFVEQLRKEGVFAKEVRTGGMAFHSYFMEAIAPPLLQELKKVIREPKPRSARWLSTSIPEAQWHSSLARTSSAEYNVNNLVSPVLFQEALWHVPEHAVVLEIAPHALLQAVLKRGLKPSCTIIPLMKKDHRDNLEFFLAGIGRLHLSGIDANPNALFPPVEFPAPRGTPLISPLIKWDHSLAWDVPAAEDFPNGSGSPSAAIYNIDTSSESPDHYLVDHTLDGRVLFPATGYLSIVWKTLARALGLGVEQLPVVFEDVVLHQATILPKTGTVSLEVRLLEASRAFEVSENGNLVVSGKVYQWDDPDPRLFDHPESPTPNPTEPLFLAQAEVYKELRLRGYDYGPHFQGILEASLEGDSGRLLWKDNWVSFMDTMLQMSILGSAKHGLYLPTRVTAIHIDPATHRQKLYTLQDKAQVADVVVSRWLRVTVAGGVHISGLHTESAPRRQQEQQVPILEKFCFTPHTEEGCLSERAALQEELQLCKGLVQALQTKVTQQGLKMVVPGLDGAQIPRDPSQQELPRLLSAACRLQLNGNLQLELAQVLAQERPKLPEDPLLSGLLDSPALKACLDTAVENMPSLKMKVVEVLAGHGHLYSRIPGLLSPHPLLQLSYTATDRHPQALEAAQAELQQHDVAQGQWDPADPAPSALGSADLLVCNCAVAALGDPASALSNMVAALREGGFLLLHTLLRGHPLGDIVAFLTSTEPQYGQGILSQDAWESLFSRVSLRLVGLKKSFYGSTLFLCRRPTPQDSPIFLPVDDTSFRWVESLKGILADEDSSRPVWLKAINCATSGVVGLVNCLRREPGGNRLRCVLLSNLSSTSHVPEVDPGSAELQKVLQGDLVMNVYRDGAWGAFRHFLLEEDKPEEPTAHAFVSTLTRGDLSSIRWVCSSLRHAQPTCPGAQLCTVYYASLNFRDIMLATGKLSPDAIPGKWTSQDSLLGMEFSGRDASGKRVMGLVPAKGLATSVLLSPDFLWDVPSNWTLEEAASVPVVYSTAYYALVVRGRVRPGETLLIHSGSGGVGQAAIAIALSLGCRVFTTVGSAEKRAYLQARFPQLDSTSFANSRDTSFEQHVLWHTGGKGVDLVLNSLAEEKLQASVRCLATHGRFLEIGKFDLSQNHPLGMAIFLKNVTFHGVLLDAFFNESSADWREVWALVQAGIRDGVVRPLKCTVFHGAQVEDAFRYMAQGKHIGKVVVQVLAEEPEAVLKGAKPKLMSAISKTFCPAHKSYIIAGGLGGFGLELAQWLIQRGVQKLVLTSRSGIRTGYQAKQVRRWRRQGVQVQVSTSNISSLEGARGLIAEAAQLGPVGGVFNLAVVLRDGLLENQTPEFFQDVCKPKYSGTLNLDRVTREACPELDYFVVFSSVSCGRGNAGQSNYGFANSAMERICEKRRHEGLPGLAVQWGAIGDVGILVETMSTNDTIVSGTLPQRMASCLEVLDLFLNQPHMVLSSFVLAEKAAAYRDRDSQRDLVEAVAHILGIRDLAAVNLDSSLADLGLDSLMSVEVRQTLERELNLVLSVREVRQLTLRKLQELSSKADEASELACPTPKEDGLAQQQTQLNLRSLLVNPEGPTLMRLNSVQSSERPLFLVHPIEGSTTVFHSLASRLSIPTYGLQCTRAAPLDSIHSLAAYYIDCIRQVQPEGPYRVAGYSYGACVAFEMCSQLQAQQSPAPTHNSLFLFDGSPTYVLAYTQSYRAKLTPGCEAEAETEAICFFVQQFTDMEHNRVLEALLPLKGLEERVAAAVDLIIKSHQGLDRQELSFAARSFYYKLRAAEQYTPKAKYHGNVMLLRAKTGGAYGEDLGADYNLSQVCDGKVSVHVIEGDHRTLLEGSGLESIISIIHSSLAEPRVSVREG

IC50 | SMILES
3450 nM | O=C(Nc1nc(-c2ccc(S(=O)(=O)N3CCOCC3)cc2)cs1)C1CCC1
18100 nM | CCCCC(=O)Nc1nc(-c2cccc(S(=O)(=O)N3CCOCC3)c2)cs1
307 nM | CCC(CC)C(=O)Nc1nc(-c2ccc(S(=O)(=O)N3CCOCC3)cc2)cs1
552 nM | CCCCC(=O)Nc1nc(-c2ccc(S(=O)(=O)N3CCOCC3)cc2)cs1
5110 nM | O=C(Nc1nc(-c2ccc(S(=O)(=O)N3CCOCC3)cc2)cs1)C1CC1
inactive | CC(C)(C)OC(=O)Nc1nc(-c2ccc(S(=O)(=O)N3CCOCC3)cc2)cs1
875 nM | CC(C)C(=O)Nc1nc(-c2ccc(S(=O)(=O)N3CCOCC3)cc2)cs1
> 80000 nM (inactive) | O=C(Nc1nc(-c2ccc(S(=O)(=O)N3CCOCC3)cc2)cs1)C1CCCC1
12000 nM | CC(=O)Nc1nc(-c2ccc(S(=O)(=O)N3CCOCC3)cc2)cs1
4160 nM | CCC(=O)Nc1nc(-c2ccc(S(=O)(=O)N3CCOCC3)cc2)cs1
289 nM | CCC(C)C(=O)Nc1nc(-c2ccc(S(=O)(=O)N3CCOCC3)cc2)cs1 (centres undefined)
193 nM | CCCCC(=O)Nc1nc(-c2ccc(S(=O)(=O)N3CCCC3)cc2)cs1
6620 nM | CC(C)CC(=O)Nc1nc(-c2ccc(S(=O)(=O)N3CCOCC3)cc2)cs1
644 nM | CCC(=O)Nc1nc(-c2ccc(S(=O)(=O)N3CCCC3)cc2)cs1
643 nM | CC1CCN(S(=O)(=O)c2ccc(-c3csc(NC(=O)C(C)C)n3)cc2)CC1
> 80000 nM (inactive) | O=C(Nc1nc(-c2ccc(S(=O)(=O)N3CCOCC3)cc2)cs1)C1CCCCC1
> 80000 nM (inactive) | CCC(=O)Nc1nc(-c2ccc(S(=O)(=O)N3CCC(C)CC3)cc2)cs1
295 nM | CC(C)C(=O)Nc1nc(-c2ccc(S(=O)(=O)N3CCCC3)cc2)cs1

More lines, now with the values behind:

SMILES | IC50
O=C(Nc1nc(-c2ccc(S(=O)(=O)N3CCCC3)cc2)cs1)C1CCC1 | 347 nM
CCN(CC)S(=O)(=O)c1ccc(-c2csc(NC(=O)C3CC3)n2)cc1 | 2470 nM
CN(C)S(=O)(=O)c1ccc(-c2csc(NC(=O)C3CC3)n2)cc1 | 1290 nM
CN(C)S(=O)(=O)c1ccc(-c2csc(NC(=O)C3CCCC3)n2)cc1 | 1500 nM
CCCCC(=O)Nc1nc(-c2ccc(C(=O)N3CCOCC3)cc2)cs1 | inactive
CCCCC(=O)Nc1nc(-c2ccc(S(=O)(=O)N3CCSCC3)cc2)cs1 | 649 nM
CCN(CC)S(=O)(=O)c1ccc(-c2csc(NC(=O)C(C)C)n2)cc1 | 318 nM
CCN(CC)S(=O)(=O)c1ccc(-c2csc(NC(=O)C3CCC3)n2)cc1 | 966 nM
CC1CCN(S(=O)(=O)c2ccc(-c3csc(NC(=O)C4CC4)n3)cc2)CC1 | > 80000 nM (inactive)
CCC(=O)Nc1nc(-c2ccc(S(=O)(=O)N(C)C)cc2)cs1 | 1090 nM
O=C(Nc1nc(-c2ccc(S(=O)(=O)N3CCCC3)cc2)cs1)C1CC1 | 658 nM
CCN(CC)S(=O)(=O)c1ccc(-c2csc(NC(=O)C3CCCCC3)n2)cc1 | 3140 nM
CC(=O)Nc1nc(-c2ccc(S(=O)(=O)N3CCSCC3)cc2)cs1 | > 80000 nM (inactive)
CCCCC(=O)Nc1nc(-c2ccc(S(=O)(=O)N(CC)CC)cc2)cs1 | 169 nM
CC(C)C(=O)Nc1nc(-c2ccc(S(=O)(=O)N(C)C)cc2)cs1 | 559 nM
CCC(C)C(=O)Nc1nc(-c2ccc(S(=O)(=O)N(CC)CC)cc2)cs1 (centres undefined) | 296 nM
CN(C)S(=O)(=O)c1ccc(-c2csc(NC(=O)C3CCC3)n2)cc1 | 1360 nM
CCCCC(=O)Nc1nc(-c2ccc(S(=O)(=O)N3CCC(C)CC3)cc2)cs1 | 533 nM
O=C(Nc1nc(-c2ccc(S(=O)(=O)N3CCCC3)cc2)cs1)C1CCCC1 | 751 nM
CCN(CC)S(=O)(=O)c1ccc(-c2csc(NC(=O)C3CCCC3)n2)cc1 | 1180 nM
CCC(=O)Nc1nc(-c2ccc(S(=O)(=O)N(CC)CC)cc2)cs1 | 3980 nM
